Results published in US9248128B2, “Method for enhancing remyelination using GLI1 inhibitors” (NEW YORK UNIVERSITY, priority 2012, dated 2016).

Key:
Hh pathway = conditions: Peukert and Miller-Moslin, ChemMedChem 2010; cited from earlier work
Gli1^het;RCE mice = experiment: GANT61 infusion into lateral ventricle during cuprizone demyelination/remyelination; GFP-labeled cells in Corpus Callosum by immunofluorescence; assay type: in vivo, mouse; conditions: n=3
Procedure: 10 week old mice were administered 5 mg Tamoxifen (Sigma) in corn oil on alternate days for total of 4 intraperitoneal (i.p.) injections. Gli1^het;RCE, mice, maintained on the Swiss-Webster background, were fed 0.4% cuprizone (Matsushima and Morell, 2001, Brain Pathol., 11:107-116; Elsworth & Howell, Research in Veterinary Science, 14:385-387, 1973). […] For the LPC model, 2 μl 1% LPC (Calbiochem) were stereotaxically injected into the CC at 1.5 mm anterior, 1.2 mm lateral and 2.2 mm ventral to bregma.
GANT61 (Enzo Life Sciences product #ALX-270-482) (5.6 mg/Kg per day; compound in 50% DMSO and 15% Ethanol in PEG400) or vehicle (50% DMSO+15% Ethanol in PEG400) were delivered via mini-osmotic pump (model 2004, Durect) at a rate of 0.25 μl/h for 4 weeks into the lateral ventricle of Gli^het;RCE mice at 0.5 mm Anterior, 0.75 mm lateral and 2.5 mm ventral to the bregma.
For Black-Gold (Millipore) staining, mice were perfused with 4% PFA and 20 μm coronal sections were stained according to manufacturer's protocol. For all other analysis, mice were perfused with Prefer (Anatech) and 20 μm coronal sections were stained with X-gal (Ahn & Joyner, Nature, 437:894-897, 2005) or processed for immunofluorescence with rabbit or chicken anti-GFP (1:1,000, Invitrogen) and one of the following antibodies: rat anti-PDGFRα (1:200, BD Biosciences); rabbit anti-NG2 (1:200, Millipore) and β4 spectrin (1:4,000 from M. Rasband); mouse anti-CC1 (1:400, Calbiochem), anti-GFAP (1:400, Sigma), anti-MOG (1:50, Sigma) and guinea pig anti-Caspr (1:3,000 from M. Bhat). Secondary antibodies were goat anti-species conjugated to Alexafluor-488, 594 or -680 (1:1,000, Molecular Probes). Nuclei were counterstained with Hoechst 33258 (1:5,000, Invitrogen). Fluorescent images were obtained as Z-stacks of 1 μm optical sections using a confocal laser-scanning microscope (LSM 510, Zeiss) and processed using Adobe Photoshop. At least 10 sections/mouse were analyzed and data from at least 3 mice were combined to determine the average and standard deviation. Student's t-test was performed to calculate P values.
To assess whether a strategy of inhibiting Gli1 could potentially be used therapeutically, GANT61, a small molecule inhibitor of Gli1 (Lauth et al., Proc. Natl. Acad. Sci. U.S.A., 104:8455-8460, 2007), was infused into the lateral ventricle of Gli1^het;RCE mice via a mini-osmotic pump. The infusion was started after 4 weeks of cuprizone diet and was continued for an additional 2 weeks on cuprizone and 2 weeks off cuprizone for a total of 4 weeks. Mice were then sacrificed and analyzed (FIG. 4a).

SMILES | selectivity for the Hh pathway over TNF/NFkN signaling, glucocorticoid receptor gene transactivation, and the Ras-Raf-Mek-Mapk cascade (Hh pathway) | numbers of labeled cells in the CC (Gli1^het;RCE mice; 5.6 mg/Kg per day via mini-osmotic pump for 4 weeks (2 weeks on, 2 weeks off cuprizone), mean±SD, vehicle 6.4±5) [per section] | proportion of differentiated oligodendrocytes among GFP-labeled cells (Gli1^het;RCE mice; 5.6 mg/Kg per day via mini-osmotic pump for 4 weeks, mean±SD, vehicle 21.4±18.7%) [%] | increase in GFP-labeled cells in the CC (Gli1^het;RCE mice; FIG. 4C, versus control infusion) [fold] | percentage of mature oligodendrocytes (Gli1^het;RCE mice; FIG. 4D, versus control infusion, Student's T test)
c1cc(-c2sc(-c3ccncc3)c(-c3ccncc3)c2-c2ccncc2)ccn1 [GANT58] | display selectivity for the Hh pathway | – | – | – | –
CN(C)c1ccccc1CN1CCCN(Cc2ccccc2N(C)C)C1c1ccncc1 [GANT61] | display selectivity for the Hh pathway | 43.8±22.1 | 65.4±7.5 | ~7 | significant increase
